target: S1P1 (Homo sapiens (Human), UniProt P21453); test: 35S-GTPγS binding, membranes from CHO cells expressing S1P1; assay type: biochemical; conditions: CHO cell membranes
Experimental: Cells were suspended in 50 mM TRIS, pH 7.4, 2 mM EDTA, 250 mM Sucrose (buffer A) and 1× Complete protease inhibitor cocktail (Roche), and disrupted at 4° C. by N2 decompression using a cell disruption bomb (Parr Instrument). Following centrifugation at 1000 RPM for 10 min at 4° C., the supernatant was suspended in buffer A and centrifuged again at 19000 RPM for 60 min at 4° C. The pellet was then suspended in 10 mM HEPES, pH 7.4, 1 mM EDTA, 250 mM Sucrose (Buffer B), and 1× Complete EDTA-free protease inhibitor cocktail and homogenized using a potter. Membranes were flash frozen in liquid N2 and stored at −80° C. [33P]sphingosine 1-phosphate (3000 Ci/mmol; American Radiolabeled Chemicals, Inc.) was added to test compounds in DMSO. […] Specific binding was calculated by subtracting remaining radioactivity in the presence of 1000-fold excess of unlabeled SIP. Binding data were analyzed using the GraphPad Prism program.
After 60 min incubation at 30° C. on a shaker, plates were centrifuged for 10 min at 2000 RPM. […] Triplicate samples were averaged and expressed as % response relative to S1P activation in absence of compound (n=2).

Chain of S1P1 (P21453 whole entry, species assumed): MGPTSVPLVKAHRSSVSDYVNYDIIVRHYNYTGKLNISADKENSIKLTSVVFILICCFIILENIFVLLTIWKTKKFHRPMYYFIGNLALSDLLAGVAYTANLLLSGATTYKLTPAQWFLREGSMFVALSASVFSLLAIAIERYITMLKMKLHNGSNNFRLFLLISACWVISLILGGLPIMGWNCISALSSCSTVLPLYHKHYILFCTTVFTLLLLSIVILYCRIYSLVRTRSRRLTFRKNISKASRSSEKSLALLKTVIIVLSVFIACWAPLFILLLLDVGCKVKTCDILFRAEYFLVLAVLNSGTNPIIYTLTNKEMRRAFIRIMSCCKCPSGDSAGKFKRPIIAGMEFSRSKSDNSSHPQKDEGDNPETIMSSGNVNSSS

**Q.** Which EC50 does the source give for `Fc1ccc(F)c(-c2noc(-c3cnn(-c4ccccc4F)c3-c3ccccc3)n2)c1` [Example 2, 3-(2,5-difluorophenyl)-5-[1-(2-fluorophenyl)-5-phenyl-1H-pyrazol-4-yl]-1,2,4-oxadiazole] here?
**A.** 24 nM

**Q.** `COc1ccccc1-n1ncc(-c2nc(-c3cc(F)ccc3F)no2)c1-c1ccccc1` [Example 4, 3-(2,5-difluorophenyl)-5-[1-(2-methoxyphenyl)-5-phenyl-1H-pyrazol-4-yl]-1,2,4-oxadiazole] was tested. Which EC50 did it give?
**A.** 284 nM

**Q.** For `CC(C)Cn1cc(-c2nc(-c3cc(F)ccc3F)no2)c(-c2ccccc2)n1` [Example 7, 3-(2,5-difluorophenyl)-5-(1-isobutyl-3-phenyl-1H-pyrazol-4-yl)-1,2,4-oxadiazole], which EC50 is on record?
**A.** 288 nM

**Q.** With `CC(C)n1ncc(-c2nc(-c3cc(F)ccc3F)no2)c1-c1ccccc1` [Example 10, 3-(2,5-difluorophenyl)-5-(1-isopropyl-5-phenyl-1H-pyrazol-4-yl)-1,2,4-oxadiazole] as the compound, how does the EC50 read?
**A.** 172 nM

**Q.** Which EC50 does the source give for `CCCn1ncc(-c2nc(-c3cc(F)ccc3F)no2)c1-c1ccccc1` [Example 14, 3-(2,5-difluorophenyl)-5-(5-phenyl-1-propyl-1H-pyrazol-4-yl)-1,2,4-oxadiazole] here?
**A.** 201 nM

**Q.** Which EC50 does the source give for `Cc1c(-c2nc(-c3cc(F)ccc3F)no2)cnn1-c1ccccc1` [Example 15, 3-(2,5-difluorophenyl)-5-(5-methyl-1-phenyl-1H-pyrazol-4-yl)-1,2,4-oxadiazole] here?
**A.** 192 nM

**Q.** How did the EC50 turn out when `Cn1cc(-c2nc(-c3cc(F)ccc3F)no2)c(C(C)(C)C)n1` [Example 16, 5-(3-tert-butyl-1-methyl-1H-pyrazol-4-yl)-3-(2,5-difluorophenyl)-1,2,4-oxadiazole] was run?
**A.** 901 nM

**Q.** For `COCc1c(-c2nc(-c3cc(F)ccc3F)no2)cnn1CC(C)C` [Example 17, 3-(2,5-difluorophenyl)-5-(1-isobutyl-5-(methoxymethyl)-1H-pyrazol-4-yl)-1,2,4-oxadiazole], which EC50 is on record?
**A.** 648 nM

**Q.** Which EC50 does the source give for `CCc1c(-c2nc(-c3cc(F)ccc3F)no2)cnn1CC(C)C` [Example 18, 3-(2,5-difluorophenyl)-5-(5-ethyl-1-isobutyl-1H-pyrazol-4-yl)-1,2,4-oxadiazole] here?
**A.** 776 nM

**Q.** `CCOC(=O)Cn1ncc(-c2nc(-c3cc(F)ccc3F)no2)c1-c1ccncc1` [Example 20, ethyl {4-[3-(2,5-difluorophenyl)-1,2,4-oxadiazol-5-yl]-5-pyridin-4-yl-1H-pyrazol-1-yl}acetate] was tested. Which EC50 did it give?
**A.** 172 nM

**Q.** With `CCCc1c(-c2nc(-c3cc(F)ccc3F)no2)cnn1-c1ccccc1` [Example 21, 3-(2,5-difluorophenyl)-5-(1-phenyl-5-propyl-1H-pyrazol-4-yl)-1,2,4-oxadiazole] as the compound, how does the EC50 read?
**A.** 81 nM

**Q.** `CCCc1c(-c2nc(-c3cccc(S(C)(=O)=O)c3)no2)cnn1-c1ccccc1` [Example 22] was tested. Which EC50 did it give?
**A.** 370 nM

**Q.** Which EC50 does the source give for `Fc1ccc(F)c(-c2noc(-c3cnn(CC(F)(F)F)c3-c3ccncc3)n2)c1` [Example 24, 3-(2,5-difluorophenyl)-5-(5-(pyridin-4-yl)-1-(2,2,2-trifluoroethyl)-1H-pyrazol-4-yl)-1,2,4-oxadiazole] here?
**A.** 292 nM

**Q.** Which EC50 does the source give for `Fc1ccc(F)c(-c2noc(-c3cnn(Cc4ccccc4)c3-c3ccncc3)n2)c1` [Example 25, 4-{1-benzyl-4-[3-(2,5-difluorophenyl)-1,2,4-oxadiazol-5-yl]-1H-pyrazol-5-yl}pyridine] here?
**A.** 148 nM

**Q.** `CS(=O)(=O)c1cccc(-c2noc(-c3cnn(C4CCCCC4)c3-c3ccncc3)n2)c1` [Example 26, 4-(1-cyclohexyl-4-{3-[3-(methylsulfonyl)phenyl]-1,2,4-oxadiazol-5-yl}-1H-pyrazol-5-yl)pyridine] was tested. Which EC50 did it give?
**A.** 29 nM

**Q.** Which EC50 does the source give for `COCc1c(-c2nc(-c3cc(F)ccc3F)no2)cnn1C1CCCCC1` [Example 27, 5-[1-cyclohexyl-5-(methoxymethyl)-1H-pyrazol-4-yl]-3-(2,5-difluorophenyl)-1,2,4-oxadiazole] here?
**A.** 27 nM

**Q.** For `OCc1ccc(-c2noc(-c3cnn(C4CCCCC4)c3-c3ccncc3)n2)cc1` [Example 29, {4-[5(1-cyclohexyl-5-pyridin-4-yl-1H-pyrazol-4-yl)-1,2,4-oxadiazol-3-yl]phenyl}methanol], which EC50 is on record?
**A.** 24 nM

**Q.** For `Fc1ccc(F)c(-c2noc(-c3cnn(C4CCCC4)c3-c3ccncc3)n2)c1` [Example 30, 4-{1-cyclopentyl-4-[3-(2,5-difluorophenyl)-1,2,4-oxadiazol-5-yl]-1H-pyrazol-5-yl}Pyridine], which EC50 is on record?
**A.** 20 nM

**Q.** For `CC(C)Cn1ncc(-c2nc(-c3cc(F)ccc3F)no2)c1C1CCOCC1` [Example 32, 3-(2,5-difluorophenyl)-5-[1-isobutyl-5-(tetrahydro-2H-pyran-4-yl)-1H-pyrazol-4-yl]-1,2,4-oxadiazole], which EC50 is on record?
**A.** 180 nM

**Q.** With `Fc1ccc(F)c(-c2noc(-c3cnn(C4CCOCC4)c3-c3ccccc3)n2)c1` [Example 33, 3-(2,5-difluorophenyl)-5-[5-phenyl-1-(tetrahydro-2H-pyran-4-yl)-1H-pyrazol-4-yl]-1,2,4-oxadiazole] as the compound, how does the EC50 read?
**A.** 216 nM

**Q.** With `Fc1ccc(F)c(-c2noc(-c3cnn(CCNC4CC4)c3-c3ccccc3)n2)c1` [Example 35, N-(2-{4-[3-(2,5-difluorophenyl)-1,2,4-oxadiazol-5-yl]-5-phenyl-1H-pyrazol-1-yl}ethyl)cyclopropanamine] as the compound, how does the EC50 read?
**A.** 931 nM

**Q.** `CC(C)Cn1ncc(-c2nc(-c3ccc4c(c3)CNCC4)no2)c1-c1ccncc1` [Example 36, 7-[5-(1-isobutyl-5-pyridin-4-yl-1H-pyrazol-4-yl)-1,2,4-oxadiazol-3-yl]-1,2,3,4-tetrahydroisoquinoline] was tested. Which EC50 did it give?
**A.** 114 nM

**Q.** `c1cc(-c2c(-c3nc(-c4ccc5c(c4)CNCC5)no3)cnn2C2CCCCC2)ccn1` [Example 39, 7-[5-(1-cyclohexyl-5-pyridin-4-yl-1H-pyrazol-4-yl)-1,2,4-oxadiazol-3-yl]-1,2,3,4-tetrahydroisoquinoline] was tested. Which EC50 did it give?
**A.** 16 nM

**Q.** With `CC(C)Cn1ncc(-c2nc(-c3cccc(S(C)(=O)=O)c3)no2)c1-c1ccncc1` [Example 43, 4-(1-isobutyl-4-{3-[3-(methylsulfonyl)phenyl]-1,2,4-oxadiazol-5-yl}-1H-pyrazol-5-yl)pyridine] as the compound, how does the EC50 read?
**A.** 292 nM

**Q.** Which EC50 does the source give for `Fc1ccc(F)c(-c2noc(-c3cnn(C4CCC4)c3-c3ccncc3)n2)c1` [Example 44, 4-{1-cyclobutyl-4-[3-(2,5-difluorophenyl)-1,2,4-oxadiazol-5-yl]-1H-pyrazol-5-yl}pyridine] here?
**A.** 402 nM

**Q.** For `OC1CCN(Cc2ccc(-c3noc(-c4cnn(C5CCCCC5)c4-c4ccncc4)n3)cc2)C1` (stereo not shown) [Example 45, 1-{4-[5-(1-cyclohexyl-5-pyridin-4-yl-1H-pyrazol-4-yl)-1,2,4-oxadiazol-3-yl]benzyl}pyrrolidin-3-ol], which EC50 is on record?
**A.** 10 nM

**Q.** For `C[C@H]1CCCC[C@@H]1n1ncc(-c2nc(-c3cc(F)ccc3F)no2)c1-c1ccccc1` [Example 46, 3-(2,5-difluorophenyl)-5-{1-[(1S,2S)-2-methylcyclohexyl]-5-phenyl-1H-pyrazol-4-yl}-1,2,4-oxadiazole], which EC50 is on record?
**A.** 26 nM

**Q.** How did the EC50 turn out when `Cc1ccccc1-c1c(-c2nc(-c3cc(F)ccc3F)no2)cnn1C1CCCCC1` [Example 48, 5-[1-cyclohexyl-5-(2-methylphenyl)-1H-pyrazol-4-yl]-3-(2,5-difluorophenyl)-1,2,4-oxadiazole] was run?
**A.** 47 nM

**Q.** Which EC50 does the source give for `COCc1c(-c2nc(-c3ccc(CO)cc3)no2)cnn1C1CCCCC1` [Example 49, (4-{5-[1-cyclohexyl-5-(methoxymethyl)-1H-pyrazol-4-yl]-1,2,4-oxadiazol-3-yl}phenyl)methanol] here?
**A.** 229 nM

**Q.** For `CC(C)Cn1ncc(-c2nc(-c3cccc(C(F)(F)F)c3)no2)c1C1CCOCC1` [Example 50, 5-[1-isobutyl-5-(tetrahydro-2H-pyran-4-yl)-1H-pyrazol-4-yl]-3-[3-(trifluoromethyl)phenyl]-1,2,4-oxadiazole], which EC50 is on record?
**A.** 211 nM

**Q.** Which EC50 does the source give for `c1ccc(-c2nc(-c3cnn(C4CCCCC4)c3-c3ccccc3)no2)cc1` [Example 51, 3-(1-cyclohexyl-5-phenyl-1H-pyrazol-4-yl)-5-phenyl-1,2,4-oxadiazole] here?
**A.** 310 nM

**Q.** For `Fc1ccccc1-c1nc(-c2cnn(C3CCCCC3)c2-c2ccccc2)no1` [Example 52, 3-(1-cyclohexyl-5-phenyl-1H-pyrazol-4-yl)-5-(2-fluorophenyl)-1,2,4-oxadiazole], which EC50 is on record?
**A.** 313 nM

**Q.** With `c1ccc(-c2c(-c3noc(-c4cccnc4)n3)cnn2C2CCCCC2)cc1` [Example 53, 3-[3-(1-cyclohexyl-5-phenyl-1H-pyrazol-4-yl)-1,2,4-oxadiazol-5-yl]pyridine] as the compound, how does the EC50 read?
**A.** 164 nM

**Q.** For `CC(C)Cn1ncc(-c2nc(-c3ccc(CO)cc3)no2)c1-c1ccncc1` [Example 54, {4-[5-(1-isobutyl-5-pyridin-4-yl-1H-pyrazol-4-yl)-1,2,4-oxadiazol-3-yl]phenyl}methanol], which EC50 is on record?
**A.** 189 nM

**Q.** Which EC50 does the source give for `CNCc1ccc(-c2noc(-c3cnn(C4CCCCC4)c3-c3ccncc3)n2)cc1` [Example 55, 1-{4-[5-(1-cyclohexyl-5-pyridin-4-yl-1H-pyrazol-4-yl)-1,2,4-oxadiazol-3-yl]phenyl}-N-methylmethanamine] here?
**A.** 24 nM

**Q.** For `OCCNCc1ccc(-c2noc(-c3cnn(C4CCCCC4)c3-c3ccncc3)n2)cc1` [Example 56, 2-({4-[5-(1-cyclohexyl-5-pyridin-4-yl-1H-pyrazol-4-yl)-1,2,4-oxadiazol-3-yl]benzyl}amino)ethanol], which EC50 is on record?
**A.** 11 nM

**Q.** With `Fc1ccc(F)c(-c2nc(-c3cnn(C4CCCCC4)c3-c3ccccc3)no2)c1` [Example 57, 3-(1-cyclohexyl-5-phenyl-1H-pyrazol-4-yl)-5-(2,5-difluorophenyl)-1,2,4-oxadiazole] as the compound, how does the EC50 read?
**A.** 49 nM
